According to paper PMC7075904, “Tethered primary hepatocyte spheroids on polystyrene multi-well plates for high-throughput drug safety testing” (Scientific Reports, 2020):
Where two headings read alike, the source gives them in different places.

Assays:
[1] = tested on: hepatocyte tethered spheroids; assay: Inhibition of spheroid spreading/tethering (live cell imaging of spheroid diameter); format: cell-based; details: 24 hour live cell imaging, tethered spheroids on modified PS plates
Protocol: Hepatocytes were cultured as mentioned in section 2.1 and 2.2. Once spheroid formation was observed (2–3 days after cell seeding), cells were treated with DMSO or relevant hepatotoxicants (APAP/troglitazone) at different concentrations. 24 hour live cell imaging was performed starting 2 hours after drug addition using IN Cell Analyzer 2000 Imaging System (GE Healthcare Lifesciences, Buckinghamshire, U.K.). Images were acquired every 2 hours. Images acquired at 2 hours, 8 hours, 16 hours and 24 hours were used for further analysis. Individual spheroids were identified by image segmentation using Matlab Image Processing Toolbox and Statistical Toolbox (Mathworks) and the sizes of the spheroids were determined. Density plots were acquired in R (Version 3.1.2) to show the spheroid size distribution and percentage of spheroids within a certain diameter range at different drug concentrations was plotted in Excel.

[2] = tested on: primary human hepatocytes (PHHs) spheroids on the TS-PS system; assay: Alamar Blue cell viability of PHHs tethered spheroids on PS plates (TS-PS); format: cell-based; details: Hepatocyte, PHHs in TS-PS, 24 hours after treatment, 3 donors
Protocol: Cryopreserved PHHs were purchased commercially from Life Technologies (Carlsbad, CA, USA) and BD Biosciences (Franklin Lakes, NJ, USA). Freshly thawed cells were cultured as described[32] with daily culture media change. Hepatocytes from three different donors (three lots of commercial cells) were used for the experiments and all assays were performed after 72 hours of culture.
Cell viability of hepatocytes was measured 24 hours after treatment with drugs using Alamar Blue cell viability assay according to manufacturer’s instructions. Drugs used for the cell viability assays (Acetaminophen, Troglitazone, Chlorpromazine and Diclofenac) were purchased from Sigma. Stock solutions of drugs were prepared in DMSO and then diluted in media to obtain desired working concentrations. Controls were treated with solvent alone (in absence of test compounds) and considered as 100% viability value.

[3] = tested on: hepatocytes; details: cited from earlier work
[4] = tested on: rat hepatocytes tethered spheroids on modified PS plates; assay: CellTiter-Glo 3D Cell Viability Assay on tethered spheroids with automated liquid handling; format: cell-based; details: 200 μM, 24 hours, rat hepatocyte tethered spheroids; DMSO-treated wells 12.32 × 10^6 RLU
Protocol: Primary hepatocytes were harvested from male Wistar rats using a two-step in situ collagenase perfusion method according to protocols described previously[19],[31]. Freshly isolated rat hepatocytes were seeded onto the different substrates at a density of 1 × 10^5 cells/cm^2 in 96-well microplates and cultured in 100 μl of William’s E culture medium supplemented with 1 mg/mL bovine serum albumin (BSA), 10 ng/mL epidermal growth factor, […] insulin, 5 nM dexamethasone, 50 ng/mL linoleic acid, 100 units/mL penicillin and […]. Media was changed daily during the entire culture period. For collagen monolayer culture, neutralized 1.5 mg/ml Type I bovine collagen (Advanced BioMatrix, San Diego, CA, USA) was coated on the surface of the microplates.
Cell attachment and tethered spheroid formation was monitored using phase contrast microscopy for a period of seven days. In addition, CellTiter-Glo 3D Cell Viability Assay (Promega, Madison, Wisconsin, USA), which determines the number of viable cells present in a 3D cell culture/spheroid by quantifying the amount of ATP present, was used to test the variability in cell attachment across the plate and adaptation of the plate to an automated liquid handling system 5 days after cells seeding. […] After that, CellTiter-Glo 3D was added to each of the wells and the relative light units (RLU) were quantified.

SMILES	IC50 ([1]; read-out: IC50 using changes in cellular dynamics (spheroids of diameter 90–120 μm decreased by 50% compared to untreated control))	IC50 [2]	IC50 ([3]; read-out: IC50 (conventional cell viability assays))	CellTiter-Glo 3D signal (relative light units) [4]	IC50 ([1]; read-out: Concentration at which spheroids of diameter 90–120 μm decreased by 50% compared to untreated control)	IC50 ([3]; read-out: IC50 (reported))
CC(=O)Nc1ccc(O)cc1 [Acetaminophen]	5 mM	50 mM	8 to 40 mM			
CN(C)CCCN1c2ccccc2Sc2ccc(Cl)cc21 [Chlorpromazine]		0.122 mM		1.55 × 10^4 RLU		
O=C(O)Cc1ccccc1Nc1c(Cl)cccc1Cl [Diclofenac]		4 mM				
Cc1c(C)c2c(c(C)c1O)CCC(C)(COc1ccc(CC3SC(=O)NC3=O)cc1)O2 (stereo not drawn) [Troglitazone]		0.1 mM			0.01 mM	0.14 mM
